Measured values taken from the CheMixHub ionic liquid set.

Experiment: xn = mol fraction of the nth substance listed

CCCC(C)O (stereo unspecified) + CCCCCC[n+]1ccn(C)c1.O=[N+]([O-])[O-]
Details	viscosity [mPa·s]
323.15 K, 100 kPa, x2 = 0	1.39

CC(C)C[C@H](NC(=O)CN)C(=O)O + CCCCCCCCCCCC[N+](C)(C)Cc1ccccc1.[Cl-] + O
electrical conductivity [S/m], 101 kPa
Details	293.15 K	298.15 K	303.15 K	308.15 K	313.15 K
x1 = 0.0009002, x2 = 0	0.00295	0.00335	0.0038	0.00435	0.00495
x1 = 0.001793, x2 = 0	0.00449	0.00524	0.00608	0.00702	0.00811

CCCn1cc[n+](C)c1C.O=[N+]([O-])c1cn[n-]c1 + COCCOCCOCCOCCOC
100 kPa
Details	viscosity [mPa·s]
278.15 K, x2 = 0.399	252
283.15 K, x2 = 0.1	1670
283.15 K, x2 = 0.201	743
283.15 K, x2 = 0.499	88
288.15 K, x2 = 0.1	929
288.15 K, x2 = 0.201	449
298.15 K, x2 = 0.399	62
313.15 K, x2 = 0.201	76

CCC(=O)[O-].C[N+](C)(C)CCO + CCCO + O
100 kPa, x1 = 0.00408, x2 = 0.5431
Details	viscosity [mPa·s]
288.15 K	3.537
298.15 K	2.571
308.15 K	1.931

CCCCCCCCCCCCCC[P+](CCCCCC)(CCCCCC)CCCCCC.N#Cc1ccc[n-]1 + CCCCCC[n+]1ccn(C)c1.O=S(=O)([N-]S(=O)(=O)C(F)(F)F)C(F)(F)F
viscosity [mPa·s], 100 kPa
Details	x2 = 0	x2 = 0.2	x2 = 0.4	x2 = 0.504
283.15 K	–	–	940	810
288.15 K	800	790	–	–

CS(C)=O + COCCCC[n+]1ccn(C)c1.C[C@@H](O)[C@H](N)C(=O)[O-]
100 kPa, x2 = 0
Details	viscosity [mPa·s]
288.15 K	2.47
293.15 K	2.21
298.15 K	1.99
303.15 K	1.81
308.15 K	1.65
313.15 K	1.51
318.15 K	1.39

C[N+]1(CCOCCOCC[N+]2(C)CCCC2)CCCC1.O=S(=O)([N-]S(=O)(=O)C(F)(F)F)C(F)(F)F.O=S(=O)([N-]S(=O)(=O)C(F)(F)F)C(F)(F)F + CC[n+]1ccn(C)c1.N#C[N-]C#N + O=S(=O)([N-]S(=O)(=O)C(F)(F)F)C(F)(F)F.[Li+]
electrical conductivity [S/m], 100 kPa
Details	298 K	303 K	313 K	323 K	333 K	343 K
x1 = 0.1484, x2 = 0.7091	0.719	0.844	1.2	1.49	1.86	2.18
x1 = 0.1554, x2 = 0.7427	0.972	1.17	1.56	1.97	2.42	2.85

CS(C)=O + CCCC[n+]1ccn(C)c1.O=S(=O)([N-]S(=O)(=O)C(F)(F)F)C(F)(F)F
100 kPa
Details	electrical conductivity [S/m]	viscosity [mPa·s]
294.5 K, x2 = 0.02028	0.45	–
298.15 K, x1 = 0.5903	–	13.22
303.15 K, x1 = 0.2885	–	23.78
303.15 K, x1 = 0.5026	–	13.9
308.15 K, x1 = 0.5903	–	9.52
308.15 K, x1 = 1	–	1.67
313.15 K, x1 = 0.0951	–	23.09
313.15 K, x1 = 0.2074	–	19.57
313.15 K, x1 = 0.5903	–	8.39
313.15 K, x1 = 1	–	1.53
323.15 K, x1 = 0.9012	–	2.15

COS(=O)(=O)[O-].Cn1cc[n+](C)c1 + COCCO
viscosity [mPa·s], 101 kPa
Details	x1 = 0.0007603	x1 = 0.001899	x1 = 0.003034	x1 = 0.004168	x1 = 0.005298	x1 = 0.006426
293.15 K	2.01	2.03	2.05	2.07	2.09	2.11
303.15 K	1.4	1.42	1.44	1.46	1.48	1.5
313.15 K	0.97	0.99	1.01	1.03	1.05	1.07

CC[n+]1ccn(C)c1C.F[B-](F)(F)F + CC#N
viscosity [mPa·s], 101.3 kPa
Details	293.15 K	298.15 K	303.15 K	308.15 K	313.15 K	318.15 K	323.15 K	328.15 K	333.15 K
x1 = 0.02106	0.518	0.505	0.476	0.456	0.442	0.428	0.414	0.401	0.389
x1 = 0.04617	0.648	0.618	0.59	0.566	0.543	0.52	0.501	0.483	0.465
x1 = 0.07663	0.846	0.808	0.768	0.732	0.698	0.667	0.636	0.608	0.583
x1 = 0.1143	1.116	1.051	0.995	0.943	0.893	0.85	0.809	0.769	0.733
x1 = 0.1622	1.68	1.58	1.48	1.39	1.31	1.24	1.17	1.105	1.049
x1 = 0.2251	2.63	2.44	2.26	2.11	1.97	1.84	1.73	1.62	1.53
x1 = 0.3112	4.25	3.81	3.48	3.2	2.94	2.71	2.51	2.33	2.16
x1 = 0.4365	8.05	7.11	6.37	5.75	5.18	4.7	4.27	3.91	3.57
